Patent publication US11273193B2, “Synergistic composition as a promoter of autophagy” (GIULIANI S.P.A., priority 2017, dated 2022)
Entries after “also recorded” stand apart in the source; their conditions may differ.

Legend:
Type in all cases: cell-based, human
SQSTM1/p62 = experiment: Live fluorescent microscopy of p62-RFP dots (autophagy-mediated p62 degradation) in U2OS cells; conditions: U2OS cells transduced with p62-RFP; FIG. 2
Experimental: U2OS cells were seeded 3000 cells/well in 48-well plates, No. 1.5 Uncoated Coverslip, 6 mm glass diameter, previously coated with gelatin solution, and transduced with 0.2 ul di baculovirus/10 000 cells containing a chimeric protein p62-Red Fluorescent Protein (p62-RFP). At 48 h post-transduction the cells were treated with Spermidine, Biotin, Galeopsis, or vehicle and monitored for 24 h using NIKON Live Cell Imaging microscopy.
Because LC3-RFP dots may also accumulate upon a blockade of the autophagic flux, the autophagy-dependent degradation of the SQSTM1/p62 protein (Klionsky D J, Abdelmohsen K, Abe A, Abedin M J, Abeliovich H, Acevedo Arozena A, et al. Guidelines for the use and interpretation of assays for monitoring autophagy. Autophagy. 2016; 12(1):1-222) was thus monitored. p62 served as a link between LC3 and ubiquitinated substrates (Pankiv S, Clausen T H, Lamark T, Brech A, Bruun J-A, Outzen H, et al. p62/SQSTM1 binds directly to Atg8/LC3 to facilitate degradation of ubiquitinated protein aggregates by autophagy. Journal of Biological Chemistry. […]
Accordingly, the effects of biotin and Galeopsis on autophagy-mediated p62 degradation was evaluated analyzing the number of p62-RFP autophagosomes by live fluorescent microscopy. […] Then, p62 fluorescent dots were monitored upon addition of biotin, Galeopsis, spermidine or vehicle.

p62/SQSTM1 = experiment: Immunoblot analysis of p62 protein levels in U2OS cells; conditions: immunoblot normalized to GAPDH, spermidine 0.5 μM, biotin 19.91 ng/ml, Galeopsis 7.9 ng/ml
Experimental: U2OS cells were grown to 80% confluence in Dulbecco Modified Eagle's Medium High Glucose (4.5 g/ID-Glucose) containing 4 mM L-glutamine, 10% fetal bovine serum (FBS) and treated with Spermidine (Lot. 2010112716), Galeopsis segetum (IDN 6781), Biotin (Lot. 2014124160) or their combinations. Protein samples were extracted in RIPA buffer as previously reported (De Mei C, Ercolani L, Parodi C, Veronesi M, Vecchio C L, Bottegoni G, et al. Dual inhibition of REV-ERBβ and autophagy as a novel pharmacological approach to induce cytotoxicity in cancer cells. Oncogene. 2015; 34(20):2597-608). p62/SQSTM1 and GAPDH levels were analyzed with anti-p62/SQSTM1 and anti-GADPH specific antibodies. Immunoblot experiments were performed in TBS-T buffer containing 5% bovine serum albumin (BSA). […] and anti-GAPDH antibodies were diluted 1:1000 and 1:50000, respectively. Complementary HPR-conjugated secondary antibodies were diluted 1:10000. Upon reaction with ECL Western blotting detection reagent, chemiluminescent signals were acquired with a LAS-4000 luminescent image analyzer and optical density of specific band signal was calculated with Photoshop image analysis software. GAPDH was adopted as a loading control and GAPDH signals were used to normalize p62 protein levels among different samples.
Immunoblots were repeated at least 4 times in order to express value as mean±SEM. […]

LC3 = experiment: Live fluorescent microscopy of LC3-RFP dots (autophagosome accumulation) in U2OS cells; conditions: U2OS cells transduced with LC3-RFP, 6 h; biotin 200 ng/ml, Galeopsis dry extract 100 ng/ml, spermidine 10 μM; FIG. 1
Excerpt: In order to evaluate whether biotin and/or Galeopsis segetum extract may affect autophagy, the inventors monitored the accumulation of autophagosome in cultured U2OS cells by live fluorescent microscopy (Klionsky D J, Abdelmohsen K, Abe A, Abedin M J, Abeliovich H, Acevedo Arozena A, et al. Guidelines for the use and interpretation of assays for monitoring autophagy. Autophagy. 2016; 12(1):1-222). Thus, cells were trasduced with construct containing the autophagy protein, LC3, fused with a Red Fluorescent Protein (RFP). Then, accumulation of fluorescent LC3 dots upon addition of biotin (200 ng/ml) or Galeopsis dry extract (100 ng/ml) was monitored by acquiring images every 30 min for 6 h. Spermidine (10 μM) was adopted as a positive control of an autophagy inducer compound (Pietrocola F, Lachkar S, Enot D, Niso-Santano M, Bravo-San Pedro J, Sica V, et al. Spermidine induces autophagy by inhibiting the acetyltransferase EP300. Cell Death & Differentiation. 2015; 22(3):509-16).
Both biotin and Galeopsis segetum dry extract produced a similar accumulation of LC3-red dots.

SQSTM1 = experiment: Immunoblot of SQSTM1 in U2OS cells, Example 14; conditions: 100 μM, 6 h, normalized by ACTIN, FIG. 3
Experimental: (§1) The levels of lipidated LC3 and SQSTM1 in human U2OS cells treated with equimolar doses of N1-methylspermidine and spermidine were evaluated. […] Specifically cultured human U2OS cells were treated 6 h with vehicle or equimolar doses of spermidine and N^1-methylspermidine (100 μM). The levels of lipidated LC3 (LC3-II) and SQSTM1 were then assessed by immunoblotting analysis as in example 8 with specific antibody. Actin signals were adopted as a loading control. Densitometry analysis of protein signals is reported as relative protein levels normalized by ACTIN. Vehicle sample value was set to 1. Shown as mean±SEM., n=3. *P<0.05 and **P<0.01, compounds versus vehicle.

lipidated LC3 (LC3-II) = experiment: Immunoblot of lipidated LC3 (LC3-II) in U2OS cells, Example 14; conditions: 100 μM, 6 h, normalized by ACTIN, FIG. 3
Experimental: as §1

SMILES: NCCCCNCCCN [Spermidine, N′-(3-aminopropyl)butane-1,4-diamine]
- reduction of p62-RFP fluorescent dots / signals versus vehicle (SQSTM1/p62): markedly reduced p62 fluorescent dots and fluorescent signals
- Percentage of p62 reduction versus vehicle (% ± SEM) (p62/SQSTM1): 5 ± 0.11%
- accumulation of fluorescent LC3 dots (autophagosomes) (LC3): marked accumulation of LC3 fluorescent dots
- autophagy-mediated degradation of SQSTM1 compared with vehicle (SQSTM1): stimulated autophagy-mediated degradation of SQSTM1
- levels of the lipidated LC3-II form compared with vehicle (lipidated LC3 (LC3-II)): increased the levels of the lipidated LC3-II form

SMILES: CNCCCNCCCCN [N1-methylspermidine]
- autophagy-mediated degradation of SQSTM1 compared with vehicle (SQSTM1): stimulated autophagy-mediated degradation of SQSTM1
- levels of the lipidated LC3-II form compared with vehicle (lipidated LC3 (LC3-II)): increased the levels of the lipidated LC3-II form

SMILES: O=C(O)CCCC[C@@H]1SC[C@@H]2NC(=O)N[C@@H]21 [Biotin, 5-[(3aS,4S,6aR)-2-oxohexahydro-1H-thieno[3,4-d]imidazole-4-yl]pentanoic acid]
- reduction of p62-RFP fluorescent dots / signals versus vehicle (SQSTM1/p62): drastic reduction of p62-RFP dots; also recorded: strong reduction of p62 fluorescent signals
- Percentage of p62 reduction versus vehicle (% ± SEM) (p62/SQSTM1): 21 ± 1.5%
- accumulation of fluorescent LC3 dots (autophagosomes) (LC3): marked accumulation of fluorescent LC3 dots
